Patent US10092570B2 (Incyte Corporation, priority 2011, dated 2018)
Where a name gives a salt, the structure may show the parent alone.

target: PI3Kδ (p110δ/p85α) (Homo sapiens (Human), UniProt O00329); experiment: Example A3: PI3Kδ scintillation proximity assay; type: biochemical; conditions: scintillation proximity assay, 20 μM ATP, 4 nM PI3Kδ; read-out: PI3Kδ SPA IC50
Procedure, shortened: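 p110δ/p85α (4 nM) phosphorylated 20 μM PIP2 with 20 μM ATP plus [γ-33P]ATP in MOPS pH 6.7, MgCl2, DTT, CHAPS, 0.5% DMSO, at RT. Stopped with EDTA/excess ATP, product captured on WGA SPA beads overnight and counted; IC50 from percent control activity versus log inhibitor.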

PI3Kδ (p110δ/p85α), sequence (O00329 whole entry): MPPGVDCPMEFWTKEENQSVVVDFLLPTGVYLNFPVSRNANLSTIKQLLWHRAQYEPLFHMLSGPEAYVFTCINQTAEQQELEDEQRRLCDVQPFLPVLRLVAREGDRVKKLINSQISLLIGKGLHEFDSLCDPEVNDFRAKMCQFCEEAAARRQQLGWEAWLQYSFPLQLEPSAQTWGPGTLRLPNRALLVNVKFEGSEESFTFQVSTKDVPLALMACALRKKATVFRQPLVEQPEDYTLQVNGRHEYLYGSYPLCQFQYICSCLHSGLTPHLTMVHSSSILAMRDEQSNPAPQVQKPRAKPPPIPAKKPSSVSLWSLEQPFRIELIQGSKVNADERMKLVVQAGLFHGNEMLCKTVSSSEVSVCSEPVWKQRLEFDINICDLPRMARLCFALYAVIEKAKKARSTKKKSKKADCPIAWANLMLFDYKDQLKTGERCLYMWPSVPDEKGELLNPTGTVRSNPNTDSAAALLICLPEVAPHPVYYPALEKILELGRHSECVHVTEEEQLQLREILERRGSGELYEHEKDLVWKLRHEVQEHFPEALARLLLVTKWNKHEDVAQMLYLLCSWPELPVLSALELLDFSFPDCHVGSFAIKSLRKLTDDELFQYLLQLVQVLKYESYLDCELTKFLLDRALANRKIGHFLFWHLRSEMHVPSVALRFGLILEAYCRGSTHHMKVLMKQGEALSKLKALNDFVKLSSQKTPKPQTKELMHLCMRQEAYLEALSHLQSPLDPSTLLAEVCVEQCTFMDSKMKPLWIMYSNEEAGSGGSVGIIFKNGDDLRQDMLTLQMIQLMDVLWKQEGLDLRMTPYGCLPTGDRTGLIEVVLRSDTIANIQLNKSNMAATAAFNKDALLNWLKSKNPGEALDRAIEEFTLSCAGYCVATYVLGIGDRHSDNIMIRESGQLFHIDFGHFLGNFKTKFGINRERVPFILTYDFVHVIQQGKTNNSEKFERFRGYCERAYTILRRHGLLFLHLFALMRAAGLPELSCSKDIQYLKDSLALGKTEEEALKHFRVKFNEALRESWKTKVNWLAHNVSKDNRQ
PI3Kδ (p110δ/p85α), sequence (P27986 whole entry partner): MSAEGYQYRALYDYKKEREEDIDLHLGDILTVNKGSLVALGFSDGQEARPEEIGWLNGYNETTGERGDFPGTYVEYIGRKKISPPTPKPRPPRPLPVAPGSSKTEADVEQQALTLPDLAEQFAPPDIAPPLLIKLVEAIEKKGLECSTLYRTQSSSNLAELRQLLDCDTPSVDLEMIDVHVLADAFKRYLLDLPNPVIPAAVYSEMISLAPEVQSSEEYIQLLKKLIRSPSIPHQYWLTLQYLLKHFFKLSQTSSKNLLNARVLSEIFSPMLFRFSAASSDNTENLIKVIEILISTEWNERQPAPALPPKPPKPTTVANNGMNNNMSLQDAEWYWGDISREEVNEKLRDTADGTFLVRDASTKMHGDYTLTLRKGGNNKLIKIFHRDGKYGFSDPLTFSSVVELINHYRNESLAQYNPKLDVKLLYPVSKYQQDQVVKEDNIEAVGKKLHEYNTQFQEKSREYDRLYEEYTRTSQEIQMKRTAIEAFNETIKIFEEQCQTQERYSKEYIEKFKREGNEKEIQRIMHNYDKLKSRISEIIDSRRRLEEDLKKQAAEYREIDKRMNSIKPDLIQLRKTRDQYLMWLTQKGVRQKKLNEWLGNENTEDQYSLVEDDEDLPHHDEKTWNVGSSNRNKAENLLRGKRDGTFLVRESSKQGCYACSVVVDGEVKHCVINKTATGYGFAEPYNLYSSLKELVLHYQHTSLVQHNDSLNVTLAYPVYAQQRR

Row | Compound | IC50 [nM]
1 | COc1c(C(C)n2nc(C)c3c(N)ncnc32)cc(Cl)c(Cl)c1C1CN(C[C@H](C)O)C1 (stereo partly drawn) [Example 301, (2S)-1-(3-{3-[1-(4-Amino-3-methyl-1H-pyrazolo[3,4-d]pyrimidin-1-yl)ethyl]-5,6-dichloro-2-methoxyphenyl}azetidin-1-yl)propan-2-ol] | < 10
2 | COc1c(C(C)n2nc(C)c3c(N)ncnc32)cc(Cl)c(C#N)c1C1CN(C2COC2)C1 (single isomer, unassigned) [Example 274, 4-[1-(4-Amino-3-methyl-1H-pyrazolo[3,4-d]pyrimidin-1-yl)ethyl]-6-chloro-3-methoxy-2-(1-oxetan-3-ylazetidin-3-yl)benzonitrile] | < 10
3 | CCOc1c(C(C)n2nc(C)c3c(N)ncnc32)cc(Cl)c(C#N)c1-c1ccc(C(C)(C)O)nc1 (racemic) [Example 316, 4-[1-(4-amino-3-methyl-1H-pyrazolo[3,4-d]pyrimidin-1-yl)ethyl]-6-chloro-3-ethoxy-2-[6-(1-hydroxy-1-methylethyl)pyridin-3-yl]benzonitrile] | < 10
4 | COc1c(C(C)n2nc(C)c3c(N)ncnc32)cc(Cl)c(C)c1C1CN(C(C)=O)C1 (centres unmarked) [Example 2, 1-{1-[3-(1-Acetylazetidin-3-yl)-5-chloro-2-methoxy-4-methylphenyl]ethyl}-3-methyl-1H-pyrazolo[3,4-d]pyrimidin-4-amine trifluoroacetate] | < 10
5 | CCOc1c(C(C)n2nc(C)c3c(N)ncnc32)cc(Cl)c(C#N)c1C1CN(CCC(F)(F)F)C1 (single isomer, unassigned) [Example 234, 4-[1-(4-Amino-3-methyl-1H-pyrazolo[3,4-d]pyrimidin-1-yl)ethyl]-6-chloro-3-ethoxy-2-[1-(3,3,3-trifluoropropyl)azetidin-3-yl]benzonitrile] | < 10
6 | CCOc1c(C(C)n2nc(C)c3c(N)ncnc32)cc(Cl)c(C#N)c1C1CN(C(C)(C)C(N)=O)C1 (single isomer, unassigned) [Example 239, 2-(3-{3-[1-(4-Amino-3-methyl-1H-pyrazolo[3,4-d]pyrimidin-1-yl)ethyl]-5-chloro-6-cyano-2-ethoxyphenyl}azetidin-1-yl)-2-methylpropanamide] | < 10
7 | CCOc1c(C(C)n2nc(C)c3c(N)ncnc32)cc(Cl)c(C#N)c1C1CN(C2CCOCC2)C1 (single isomer, unassigned) [Example 229, 4-[1-(4-Amino-3-methyl-1H-pyrazolo[3,4-d]pyrimidin-1-yl)ethyl]-6-chloro-3-ethoxy-2-[1-(tetrahydro-2H-pyran-4-yl)azetidin-3-yl]benzonitrile] | < 10
8 | CCOc1c(C(C)n2nc(C)c3c(N)ncnc32)cc(Cl)c(C)c1-c1ccnc(C(=O)N(C)C)c1 (single isomer, unassigned) [Example 201] | < 10
9 | CCOc1c(C(C)n2nc(C)c3c(N)ncnc32)cc(Cl)c(C#N)c1C1CNC1 (single isomer, unassigned) [Example 212, 4-[1-(4-Amino-3-methyl-1H-pyrazolo[3,4-d]pyrimidin-1-yl)ethyl]-2-azetidin-3-yl-6-chloro-3-ethoxybenzonitrile] | < 10
10 | COc1c(C(C)n2nc(C)c3c(N)ncnc32)cc(Cl)c(C)c1C1CCN(CC(C)(C)O)CC1 (racemic) [Example 164, 1-(4-{3-[1-(4-Amino-3-methyl-1H-pyrazolo[3,4-d]pyrimidin-1-yl)ethyl]-5-chloro-2-methoxy-6-methylphenyl}piperidin-1-yl)-2-methylpropan-2-ol] | < 10
11 | CCOc1c(C(C)n2nc(C)c3c(N)ncnc32)cc(Cl)c(C)c1-c1ccc(C(=O)N(C)C)nc1 (centres unmarked) [Example 14, 5-{3-[1-(4-Amino-3-methyl-1H-pyrazolo[3,4-d]pyrimidin-1-yl)ethyl]-5-chloro-2-ethoxy-6-methylphenyl}-N,N-dimethylpyridine-2-carboxamide bis(trifluoroacetate)] | < 10

test system: Pfeiffer cell line (diffuse large B cell lymphoma); experiment: Example B2: Pfeiffer cell proliferation assay; type: cell-based; conditions: Homo sapiens, Pfeiffer, Pfeiffer cells, [3H]-thymidine incorporation
Protocol: Pfeiffer cell line (diffuse large B cell lymphoma) are purchased from ATCC (Manassas, Va.) and maintained in the culture medium recommended (RPMI and 10% FBS). To measure the anti-proliferation activity of the compounds, the Pfeiffer cells are plated with the culture medium (2×10^3 cells/well/per 200 μl) into 96-well ultra-low binding plates (Corning, Corning, N.Y.), in the presence or absence of a concentration range of test compounds. After 3-4 days, [^3H]-thymidine (1 μCi/well) (PerkinElmer, Boston, Mass.) in PBS is then added to the cell culture for an additional 12 hours before the incorporated radioactivity is separated by filtration with water through GF/B filters (Packard Bioscience, Meridenj, Conn.) and measured by liquid scintillation counting with a TopCount (Packard Bioscience).

Row | Compound | IC50 [nM]
12 | CCOc1c(C(C)n2nc(C)c3c(N)ncnc32)cc(Cl)c(C#N)c1C1CN(CC(C)(C)O)C1 (single isomer, unassigned) [Example 222, 4-[1-(4-Amino-3-methyl-1H-pyrazolo[3,4-d]pyrimidin-1-yl)ethyl]-6-chloro-3-ethoxy-2-[1-(2-hydroxy-2-methylpropyl)azetidin-3-yl]benzonitrile] | < 10
13 | COc1c(C(C)n2nc(C)c3c(N)ncnc32)cc(Cl)c(C)c1C1CN(CC(N)=O)C1 (single isomer, unassigned) [Example 111, 2-(3-{3-[1-(4-Amino-3-methyl-1H-pyrazolo[3,4-d]pyrimidin-1-yl)ethyl]-5-chloro-2-methoxy-6-methylphenyl}azetidin-1-yl)acetamide] | < 10
14 | COc1c(C(C)n2nc(C)c3c(N)ncnc32)cc(Cl)c(C#N)c1-c1ccc(C(=O)N(C)C)nc1 (centres unmarked) [Example 313, 5-{3-[1-(4-amino-3-methyl-1H-pyrazolo[3,4-d]pyrimidin-1-yl)ethyl]-5-chloro-6-cyano-2-methoxyphenyl}-N,N-dimethylpyridine-2-carboxamide] | < 10
15 | COc1c(C(C)n2nc(C)c3c(N)ncnc32)cc(Cl)c(Cl)c1C1CN(CCO)C1 (single isomer, unassigned) [Example 300, 2-(3-{3-[1-(4-Amino-3-methyl-1H-pyrazolo[3,4-d]pyrimidin-1-yl)ethyl]-5,6-dichloro-2-methoxyphenyl}azetidin-1-yl)ethano] | < 10
16 | COc1c(C(C)n2nc(C(F)F)c3c(N)ncnc32)cc(Cl)c(F)c1C1CN(C)C1 (racemic) [Example 75, 1-{1-[5-Chloro-4-fluoro-2-methoxy-3-(1-methylazetidin-3-yl)phenyl]ethyl}-3-(difluoromethyl)-1H-pyrazolo[3,4-d]pyrimidin-4-amine] | < 10
17 | CCOc1c(C(C)n2nc(C)c3c(N)ncnc32)cc(Cl)c(F)c1C1COC(=O)N1 (single isomer, unassigned) [Example 354, 4-{3-[1-(4-amino-3-methyl-1H-pyrazolo[3,4-d]pyrimidin-1-yl)ethyl]-5-chloro-2-ethoxy-6-fluorophenyl}-1,3-oxazolidin-2-one] | < 10
18 | CCOc1c(C(C)n2nc(C)c3c(N)ncnc32)cc(Cl)c(C#N)c1C1CN(CC)C1 (single isomer, unassigned) [Example 214, 4-[1-(4-Amino-3-methyl-1H-pyrazolo[3,4-d]pyrimidin-1-yl)ethyl]-6-chloro-3-ethoxy-2-(1-ethylazetidin-3-yl)benzonitrile] | < 10
19 | COc1c(C(C)n2nc(C)c3c(N)ncnc32)cc(Cl)c(C#N)c1C1CN(CC(C)(C)O)C1 (single isomer, unassigned) [Example 271, 4-[1-(4-Amino-3-methyl-1H-pyrazolo[3,4-d]pyrimidin-1-yl)ethyl]-6-chloro-2-[1-(2-hydroxy-2-methylpropyl)azetidin-3-yl]-3-methoxybenzonitrile] | < 10
20 | CCOc1c(C(C)n2nc(C)c3c(N)ncnc32)cc(Cl)c(C#N)c1C1CN(C(C)C)C1 (single isomer, unassigned) [Example 215, 4-[1-(4-Amino-3-methyl-1H-pyrazolo[3,4-d]pyrimidin-1-yl)ethyl]-6-chloro-3-ethoxy-2-(1-isopropylazetidin-3-yl)benzonitrile] | < 10
21 | COc1c(C(C)n2nc(C)c3c(N)ncnc32)cc(Cl)c(F)c1C1CN(C(C)C)C1 (stereo not drawn) [67 (1st peak), 1-{1-[5-Chloro-4-fluoro-3-(1-isopropylazetidin-3-yl)-2-methoxyphenyl]ethyl}-3-methyl-1H-pyrazolo[3,4-d]pyrimidin-4-amine] | < 10
22 | COc1c(C(C)n2nc(C)c3c(N)ncnc32)cc(Cl)c(C)c1-c1cncc(C(=O)N2CC(C#N)C2)c1 (single isomer, unassigned) [Example 177, 1-[(5-{3-[1-(4-amino-3-methyl-1H-pyrazolo[3,4-d]pyrimidin-1-yl)ethyl]-5-chloro-2-methoxy-6-methylphenyl}pyridin-3-yl)carbonyl]azetidine-3-carbonitrile] | < 10
23 | COc1c(C(C)n2nc(C)c3c(N)ncnc32)cc(Cl)c(C)c1-c1ccc(C(=O)N(C)C)nc1 (centres unmarked) [Example 167, 5-(3-(1-(4-Amino-3-methyl-1H-pyrazolo[3,4-d]pyrimidin-1-yl)ethyl)-5-chloro-2-methoxy-6-methylphenyl)-N,N-dimethylpicolinamide bis(2,2,2-trifluoroacetate)] | < 10
24 | CCOc1c(C(C)n2nc(C)c3c(N)ncnc32)cc(Cl)c(C#N)c1C1CN(CCO)C1 (centres unmarked) [Example 219, 4-[1-(4-Amino-3-methyl-1H-pyrazolo[3,4-d]pyrimidin-1-yl)ethyl]-6-chloro-3-ethoxy-2-[1-(2-hydroxyethyl)azetidin-3-yl]benzonitrile] | < 10
25 | CCOc1c(C(C)n2nc(C)c3c(N)ncnc32)cc(Cl)c(C#N)c1C1CNC(=O)C1 (single isomer, unassigned) [Example 349, 4-[1-(4-amino-3-methyl-1H-pyrazolo[3,4-d]pyrimidin-1-yl)ethyl]-6-chloro-3-ethoxy-2-(5-oxopyrrolidin-3-yl)benzonitrile] | < 10
26 | CCOc1c(C(C)n2nc(C)c3c(N)ncnc32)cc(Cl)c(F)c1C1CNC(=O)C1 (single isomer, unassigned) [Example 346, 4-{3-[1-(4-amino-3-methyl-1H-pyrazolo[3,4-d]pyrimidin-1-yl)ethyl]-5-chloro-2-ethoxy-6-fluorophenyl}pyrrolidin-2-one] | < 10
